For one assay, the target named is T1, soybean lipoxygenase (Glycine max, UniProt P08170).
T1 sequence (P08170 1-839): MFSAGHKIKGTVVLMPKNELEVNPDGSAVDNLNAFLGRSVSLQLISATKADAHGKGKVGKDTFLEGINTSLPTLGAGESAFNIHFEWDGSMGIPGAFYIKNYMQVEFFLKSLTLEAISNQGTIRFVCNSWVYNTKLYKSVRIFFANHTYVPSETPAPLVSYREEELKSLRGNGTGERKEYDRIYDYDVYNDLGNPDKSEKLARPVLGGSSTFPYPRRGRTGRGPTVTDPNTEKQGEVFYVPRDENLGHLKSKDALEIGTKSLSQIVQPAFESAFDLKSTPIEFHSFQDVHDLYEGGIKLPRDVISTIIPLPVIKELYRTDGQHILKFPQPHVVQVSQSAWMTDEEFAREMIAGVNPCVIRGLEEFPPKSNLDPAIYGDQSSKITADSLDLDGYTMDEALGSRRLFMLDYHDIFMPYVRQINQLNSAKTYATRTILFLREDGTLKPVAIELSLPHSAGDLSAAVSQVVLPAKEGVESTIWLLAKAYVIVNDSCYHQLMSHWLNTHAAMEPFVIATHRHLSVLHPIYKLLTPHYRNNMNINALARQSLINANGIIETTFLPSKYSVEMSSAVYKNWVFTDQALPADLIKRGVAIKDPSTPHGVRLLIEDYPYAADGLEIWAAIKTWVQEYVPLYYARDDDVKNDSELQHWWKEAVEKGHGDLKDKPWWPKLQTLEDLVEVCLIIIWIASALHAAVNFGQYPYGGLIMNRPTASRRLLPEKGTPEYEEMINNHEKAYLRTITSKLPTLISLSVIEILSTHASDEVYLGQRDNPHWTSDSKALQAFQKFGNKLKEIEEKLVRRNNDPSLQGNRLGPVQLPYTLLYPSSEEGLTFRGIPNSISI
Nature of the assay: Soybean LOX inhibition study in vitro. It is filed as biochemical. The settings on record: for IC50: read-out: Inhibition of Soybean Lipoxygenase IC50; for inhibition at 100 µM: read-out: Inhibition of Soybean Lipoxygenase 100 μM (%), at 100 μM. As to the method:
Furthermore, as an indication of their anti-inflammatory activity, all the molecules were tested as inhibitors of soybean lipoxygenase (LOX). The enzyme lipoxygenase catalyzes the first two steps in the metabolism of arachidonic acid, which is cleaved from membrane phospholipids to leukotrienes (LTB4). LTB4 generation is considered to be important in the pathogenesis of neutrophil-mediated inflammatory diseases. For this study, the UV absorbance-based soybean LOX assay was used, which is a plant enzyme with satisfactory homology with the human 5-LOX [61, 62, 63, 64, 65, 66].
The tested compounds dissolved in DMSO were incubated at room temperature with sodium linoleate (0.1 mL) and 0.2 mL of enzyme solution ([…] in saline) in Tris buffer pH 9.

The nature of assay [1]: Interaction with the stable free radical DPPH (reducing activity). The note with it: 100 μM. The protocol: The first assay refers to the interaction of the compounds with the stable free radical DPPH and it is a fast, simple, cost-effective, and widely used method, where the DPPH radical reacts directly with the antioxidant and is decolorized. This interaction indicates their radical scavenging ability in an iron-free system. The scavenging effect of the synthesized analogues on the DPPH radical was evaluated according to the methods of Hadjipavlou et al..
To an ethanolic solution of DPPH (100 μM) in absolute ethanol, an equal volume of the compounds dissolved in DMSO was added (100 μM). […]
Background: The DPPH test is a chemical assay of radical scavenging.

Assay [2] in a line: Inhibition of linoleic acid lipid peroxidation induced by AAPH. The text has this:
The second technique is based on the ability of the compounds to inhibit lipid peroxidation of linoleic acid induced by 2,2′-Azobis(2-amidinopropane) dihydrochloride (AAPH) radical (Table 2). AAPH-induced linoleic acid oxidation has been developed as a quick and reliable method for measuring the antioxidant activity. The thermal free radical producer (AAPH) generates free radicals in the solution which cause the oxidation of linoleic acid, and the method is a measure of how effective antioxidants protect against lipid peroxidation in vitro. Oxidation of linoleic acid by AAPH is followed by UV spectrophotometry in a highly diluted sample [61].
2,2′-Azobis(2-amidinopropane) dihydrochloride (AAPH) was used as a free radical initiator. Ten microliters of the 16 mM linoleic acid sodium salt solution was added to the UV cuvette containing 0.93 mL of 0.05 M phosphate buffer, pH 7.4 prethermostated at 37 °C. The oxidation reaction was initiated at 37 °C under air by the addition of 50 μL of 40 mM AAPH solution. Oxidation was carried out in the presence of the synthesized compounds (10 μL, from a stock solution of 10 mM in DMSO). In the assay without antioxidant, lipid oxidation was measured in the presence of the same level of DMSO.

“And” between values parts separate entries of the source, which are not always exact repeats. Equal entries are not always repeated.

The term IC50 denotes the concentration that inhibits the measured activity by half. The inhibition is the relative decrease from the control value, in per cent.

Consider `COCOc1ccc(C(=O)/C=C/c2cc(OC)c(OC)cc2OC)c(O)c1` [Compound 3c, 2′-hydroxy-4′-methoxymethoxy-2,4,5-trimethoxy-chalcone], for which the IC50 on soybean lipoxygenase was 45 µM. Besides, the “Interaction with the Free Radical DPPH (%)” value is on record as “no” in assay [1] (20 min) and 2.3% in assay [1] (60 min). In assay [2] (100 μM), the “Inhibition of Lipid Peroxidation of Linoleic Acid Induced by AAPH Radical (%)” value (from here on “Inhibition of Lipid Peroxidation … (%)”) worked out at 39.4%.

Regarding `COc1ccc(/C=C/C(=O)c2cc(Cl)ccc2O)cc1OC` [Compound 3d, 5′-chloro-3,4-dimethoxy-2′-hydroxy-chalcone], at soybean lipoxygenase, the inhibition at 100 µM stood at 32%. The “Interaction with the Free Radical DPPH (%)” value in assay [1] (20 min) and in assay [1] (60 min) was “no” each time. Besides, the “Inhibition of Lipid Peroxidation … (%)” value in assay [2] (100 μM) was “no”.

Regarding `COc1cccc(/C=C/C(=O)c2cc(Cl)ccc2O)c1OC` [Compound 3e, 5′-chloro-2,3-dimethoxy-2′-hydroxy-chalcone], on soybean lipoxygenase, the IC50 is 100 µM. Further, the “Interaction with the Free Radical DPPH (%)” value in assay [1] (20 min) and in assay [1] (60 min) was “no” throughout. Further, the “Inhibition of Lipid Peroxidation … (%)” value in assay [2] (100 μM) is 20.0%.

As for `COc1ccc(/C=C/C(=O)c2cc(Br)ccc2O)cc1OC` [Compound 3f, 5′-bromo-3,4-dimethoxy-2′-hydroxy-chalcone], the inhibition at 100 µM at soybean lipoxygenase was determined as 38%. Besides, the “Interaction with the Free Radical DPPH (%)” value in assay [1] (20 min) was “totally inactive and no”; in assay [1] (60 min) it was “no”. Further, in assay [2] (100 μM), the “Inhibition of Lipid Peroxidation … (%)” value was “inactive and no”.

For `COc1ccc(/C=C/C(=O)c2cc(Br)cc(Br)c2O)cc1OC` [Compound 3g, 3′,5′-dibromo-3,4-dimetoxy-2′-hydroxy-chalcone], on soybean lipoxygenase, the 50% inhibitory concentration (IC50) amounted to 68.5 µM. The “Interaction with the Free Radical DPPH (%)” value in assay [1] (20 min) was “totally inactive and no”; in assay [1] (60 min), “no”. Further, the “Inhibition of Lipid Peroxidation … (%)” value in assay [2] (100 μM) is “inactive and 31.0%”.

For the molecule `COCOc1ccc(/C=C/C(=O)c2cc(Br)ccc2O)cc1OCOC` [Compound 3h, 5′-bromo-3,4-dimethoxymethoxy-2′-hydroxy-chalcone], on soybean lipoxygenase, the IC50 was 55 µM. Moreover, the “Interaction with the Free Radical DPPH (%)” value in assay [1] (60 min) amounted to 6.0%. Further, the “Inhibition of Lipid Peroxidation … (%)” value in assay [2] (100 μM) came out at 65.6%.

For `COCOc1ccc(/C=C/C(=O)c2cc(Br)cc(Br)c2O)cc1OCOC` [Compound 3i, 3′,5′-bromo-3,4-dimethoxymethoxy-2′-hydroxy-chalcone], on soybean lipoxygenase, the IC50 was 67.5 µM. For the same molecule, the “Interaction with the Free Radical DPPH (%)” value was “totally inactive and no” in assay [1] (20 min); “no” in assay [1] (60 min). The “Inhibition of Lipid Peroxidation … (%)” value in assay [2] (0 min) is listed as 95.6%; in assay [2] (100 μM), 93.0%; in assay [2] (3 min), 98.6%; in assay [2] (6 min), 96.9%; in assay [2] (9 min), 99.2%.

Take `O=C(O)c1ccc(/C=C/C(=O)c2ccccc2O)cc1` [Compound 3j, 4-carboxy-2′-hydroxy-chalcone]: at soybean lipoxygenase, the half-inhibitory concentration (IC50) is 100 µM. The “Interaction with the Free Radical DPPH (%)” value in assay [1] (20 min) and in assay [1] (60 min) was “no” each time. For the same molecule, in assay [2] (100 μM), the “Inhibition of Lipid Peroxidation … (%)” value is reported as “no”.

`O=C(O)c1ccc(/C=C/C(=O)c2cc(Cl)ccc2O)cc1` [Compound 3k, 4-carboxy-5′-chloro-2′-hydroxy-chalcone]: at soybean lipoxygenase, the IC50 was found to be 67.5 µM. In addition, the “Interaction with the Free Radical DPPH (%)” value in assay [1] (20 min) and in assay [1] (60 min) was “no” in each case. The “Inhibition of Lipid Peroxidation … (%)” value in assay [2] (100 μM) is “no”.

`C[C@H](Cc1ccc(O)c(O)c1)[C@@H](C)Cc1ccc(O)c(O)c1` [NDGA, Nordihydroguaiaretic acid, reference compound]: the “Interaction with the Free Radical DPPH (%)” value in assay [1] (20 min) was 87.0%; in assay [1] (60 min) it was 93.0%.
